Laboratory results taken from US10913727B2, “Modulators of the integrated stress pathway” (Calico Life Sciences LLC, priority 2016, dated 2021).

system: HEK293T cells carrying the ATF4 luciferase reporter; assay: ATF4-Luc assay, in vitro model of Vanishing Cell White Matter Disease (VWMD); assay type: cell-based; conditions: Homo sapiens, HEK-293T, 1 μg/mL tunicamycin, 7 hours, One Glo luminescence
In short: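 Compound at 200 nM and tunicamycin at 1 μg/mL were given together for 7 h to HEK293T cells stably transduced with an ATF4 5′-UTR-driven firefly luciferase reporter. Read-out by luminescence, reported as EC50.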

First: Cc1csc(C(=O)NC23CC(NC(=O)COc4ccc(Cl)c(F)c4)(C2)C3)c1 [Compound 875, N-{3-[2-(4-chloro-3-fluorophenoxy)acetamido]bicyclo[1.1.1]pentan-1-yl}-4-methylthiophene-2-carboxamide]
Second: COc1csc(C(=O)NC23CC(NC(=O)COc4ccc(Cl)c(F)c4)(C2)C3)c1 [Compound 857, N-{3-[2-(4-chloro-3-fluorophenoxy)acetamido]bicyclo[1.1.1]pentan-1-yl}-4-methoxythiophene-2-carboxamide]
The EC50 of the first is lower: less than 50 nM for the first, 50 to 250 nM for the second.

Compared with Cc1nnsc1C(=O)NC12CC(NC(=O)COc3ccc(Cl)c(F)c3)(C1)C2 [Compound 845, N-{3-[2-(4-chloro-3-fluorophenoxy)acetamido]bicyclo[1.1.1]pentan-1-yl}-4-methyl-1,2,3-thiadiazole-5-carboxamide], O=C(COc1ccc(Cl)c(F)c1)NC12CC(NC(=O)c3cncs3)(C1)C2 [Compound 309, N-{3-[2-(4-chloro-3-fluorophenoxy)acetamido]bicyclo[1.1.1]pentan-1-yl}-1,3-thiazole-5-carboxamide] is lower in EC50: greater than 2000 nM for the first, 250 to 1000 nM for the second. The second is the more potent here.

CC(C)(O)CCc1ccnc(C(=O)NC23CC(NC(=O)COc4ccc(Cl)c(F)c4)(C2)C3)c1 [Compound 432, N-{3-[2-(4-chloro-3-fluorophenoxy)acetamido]bicyclo[1.1.1]pentan-1-yl}-4-(3-hydroxy-3-methylbutyl)pyridine-2-carboxamide] and O=C(COc1ccc(Cl)c(F)c1)NC12CC(NC(=O)c3cnc(O)cn3)(C1)C2 [Compound 184, N-{3-[2-(4-chloro-3-fluorophenoxy)acetamido]bicyclo[1.1.1]pentan-1-yl}-5-hydroxypyrazine-2-carboxamide] cannot be ordered by EC50: greater than 2000 nM for the first, greater than 2000 nM for the second.

First: O=C(COc1ccc(Cl)c(F)c1)NC12CCC(NC(=O)c3ccc(C(F)(F)F)nc3)(CC1)C(F)C2 (stereo not shown) [Compound 372, N-{4-[2-(4-chloro-3-fluorophenoxy)acetamido]-2-fluorobicyclo[2.2.2]octan-1-yl}-6-(trifluoromethyl)pyridine-3-carboxamide]
Second: O=C(COc1ccc(Cl)c(F)c1)NC12CCC(NC(=O)c3cnc(C(F)(F)F)cn3)(CC1)C[C@@H]2O [Compound 652, N-{(3S)-4-[2-(4-chloro-3-fluorophenoxy)acetamido]-3-hydroxybicyclo[2.2.2]octan-1-yl}-5-(trifluoromethyl)pyrazine-2-carboxamide]
The EC50 of the first is higher: 250 to 1000 nM for the first, less than 50 nM for the second. The second is the more potent here.

Cc1nc2ccc(C(=O)NC34CC(NC(=O)COc5ccc(Cl)c(F)c5)(C3)C4)cc2s1 [Compound 774, N-{3-[2-(4-chloro-3-fluorophenoxy)acetamido]bicyclo[1.1.1]pentan-1-yl}-2-methyl-1,3-benzothiazole-6-carboxamide] and NS(=O)(=O)c1ccc(C(=O)NC23CC(NC(=O)COc4ccc(Cl)c(F)c4)(C2)C3)cn1 [Compound 325, N-{3-[2-(4-chloro-3-fluorophenoxy)acetamido]bicyclo[1.1.1]pentan-1-yl}-6-sulfamoylpyridine-3-carboxamide] cannot be ordered by EC50: greater than 2000 nM for the first, greater than 2000 nM for the second.

First: O=C(COc1ccc(Cl)c(F)c1)NC12CC(NS(=O)(=O)c3ccc(Cl)cn3)(C1)C2 [Compound 661, 2-(4-chloro-3-fluorophenoxy)-N-{3-[(5-chloropyridine-2-sulfonyl)amino]bicyclo[1.1.1]pentan-1-yl}acetamide]
Second: O=C(COc1ccc(Cl)c(F)c1)NC12CC(NC(=O)c3cocn3)(C1)C2 [Compound 852, N-{3-[2-(4-chloro-3-fluorophenoxy)acetamido]bicyclo[1.1.1]pentan-1-yl}-1,3-oxazole-4-carboxamide]
The EC50 of the first is higher: greater than 2000 nM for the first, 1000 to 2000 nM for the second.

CC(C)c1nc(C(=O)NC23CC(NC(=O)COc4ccc(Cl)c(F)c4)(C2)C3)co1 [Compound 245, N-{3-[2-(4-chloro-3-fluorophenoxy)acetamido]bicyclo[1.1.1]pentan-1-yl}-2-(propan-2-yl)-1,3-oxazole-4-carboxamide] and CCn1cc(C(=O)NC23CC(NC(=O)COc4ccc(Cl)c(F)c4)(C2)C3)cn1 [Compound 252, N-{3-[2-(4-chloro-3-fluorophenoxy)acetamido]bicyclo[1.1.1]pentan-1-yl}-1-ethyl-1H-pyrazole-4-carboxamide] fall in the same range of EC50: 250 to 1000 nM for the first, 250 to 1000 nM for the second.

Compared with Cc1cc2c(NC34CC(NC(=O)COc5cccc(OC(F)F)c5)(C3)C4)nccn2n1 [Compound 439, 2-[3-(difluoromethoxy)phenoxy]-N-{3-[(2-methylpyrazolo[1,5-a]pyrazin-4-yl)amino]bicyclo[1.1.1]pentan-1-yl}acetamide], Cc1cc(C(=O)NC23CC(NC(=O)COc4ccc(Cl)c(Cl)c4)(C2)C3)n(C)n1 [Compound 441, N-{3-[2-(3,4-dichlorophenoxy)acetamido]bicyclo[1.1.1]pentan-1-yl}-1,3-dimethyl-1H-pyrazole-5-carboxamide] is lower in EC50: greater than 2000 nM for the first, less than 50 nM for the second. The second is the more potent here.

CCc1ccc(C(=O)NC23CCC(NC(=O)COc4ccc(Cl)c(F)c4)(CC2)[C@@H](O)C3)nc1 [Compound 754, N-{(3S)-4-[2-(4-chloro-3-fluorophenoxy)acetamido]-3-hydroxybicyclo[2.2.2]octan-1-yl}-5-ethylpyridine-2-carboxamide] and CCCc1nc(C(=O)NC23CCC(NC(=O)COc4ccc(Cl)c(F)c4)(CC2)C(O)C3)cs1 (stereo not shown) [Compound 502, N-{4-[2-(4-chloro-3-fluorophenoxy)acetamido]-3-hydroxybicyclo[2.2.2]octan-1-yl}-2-propyl-1,3-thiazole-4-carboxamide] cannot be ordered by EC50: less than 50 nM for the first, less than 50 nM for the second.

Compared with O=C(COc1ccc(Cl)c(Cl)c1)NC12CC(NC(=O)c3cccc(CO)n3)(C1)C2 [Compound 165, N-{3-[2-(3,4-dichlorophenoxy)acetamido]bicyclo[1.1.1]pentan-1-yl}-6-(hydroxymethyl)pyridine-2-carboxamide], CCOc1ccccc1C(=O)NC12CC(NC(=O)COc3ccc(Cl)c(F)c3)(C1)C2 [Compound 538, N-{3-[2-(4-chloro-3-fluorophenoxy)acetamido]bicyclo[1.1.1]pentan-1-yl}-2-ethoxybenzamide] is lower in EC50: greater than 2000 nM for the first, less than 50 nM for the second. The second is the more potent here.

First: CCOc1ccsc1C(=O)NC12CC(NC(=O)COc3ccc(Cl)c(F)c3)(C1)C2 [Compound 551, N-{3-[2-(4-chloro-3-fluorophenoxy)acetamido]bicyclo[1.1.1]pentan-1-yl}-3-ethoxythiophene-2-carboxamide]
Second: CC(=O)Nc1sccc1C(=O)NC12CC(NC(=O)COc3ccc(Cl)c(F)c3)(C1)C2 [Compound 876, 2-acetamido-N-{3-[2-(4-chloro-3-fluorophenoxy)acetamido]bicyclo[1.1.1]pentan-1-yl}thiophene-3-carboxamide]
The EC50 of the first is lower: 50 to 250 nM for the first, 250 to 1000 nM for the second. The first is the more potent here.

O=C(COc1ccc(Cl)cc1)NC12CC(Nc3cc(-c4ccc(Cl)cc4)on3)(C1)C2 [Compound 265, 2-(4-chlorophenoxy)-N-(3-{[5-(4-chlorophenyl)-1,2-oxazol-3-yl]amino}bicyclo[1.1.1]pentan-1-yl)acetamide] and O=C(COc1ccc2c(c1)OC(F)(F)O2)NC12CC(NC(=O)c3cnc(-c4ccccc4)o3)(C1)C2 [Compound 742, N-(3-{2-[(2,2-difluoro-2H-1,3-benzodioxol-5-yl)oxy]acetamido}bicyclo[1.1.1]pentan-1-yl)-2-phenyl-1,3-oxazole-5-carboxamide] cannot be ordered by EC50: less than 50 nM for the first, less than 50 nM for the second.

For COc1cc(F)ccc1C(=O)NC12CC(NC(=O)COc3ccc(Cl)c(F)c3)(C1)C2 [Compound 527, N-{3-[2-(4-chloro-3-fluorophenoxy)acetamido]bicyclo[1.1.1]pentan-1-yl}-4-fluoro-2-methoxybenzamide], the EC50 was 1000 to 2000 nM.
